# Measurements from patent US11708283B2, “Metal-chelating compositions and their use in methods of removing or inhibiting barium scale” (CORNELL UNIVERSITY, priority 2018, dated 2023).
# Like-named read-outs stand apart in the source and are kept apart here.
# How the values were obtained:
# [1] = Thermodynamic stability constants of Ca^2+ complexes by pH-potentiometry; format: binding; conditions: I = 0.1M KCl; for pCa (−log [M^2+]free): [M^2+] = 10^−6M, [L] = 10^−5M, pH 7.4; for pCa (−log [M^2+]free) / log KCaHL / log KCaL: 25° C.; for log K′Ca (conditional stability constant): pH 7.4, 25° C., calculated from protonation and stability constants; for log KCaHL / log KCaL: pH-potentiometry
# Protocol: (§1) Potentiometric measurements were carried out using a titrator equipped with a combination electrode and an exchange unit with an automatic burette (10 mL). The titration vessel was fitted with a removable glass cell (˜70 mL) and was thermostated at 25° C. using a circulating water bath. CO2 was excluded from the vessel prior to and during the titrations using a small positive pressure of Ar that was passed through a solution of 30 wt % KOH. Carbonate-free KOH (˜0.1 M) was prepared by dissolving KOH pellets (semiconductor grade, 99.99% trace metals basis) in freshly boiled water (≥18 MΩ-cm) and was standardized by potentiometric titration against potassium hydrogen phthalate. Hydrochloric acid (0.1 M) was standardized against freshly prepared KOH. Titration solutions were maintained at a constant ionic strength of 0.1 M using KCl (≥99.5%) and were equilibrated for 15 minutes prior to the addition of titrant. Before every titration, the electrode was calibrated in terms of hydrogen ion concentration by titrating a solution of standardized HCl (5 mM) containing supporting electrolyte (95 mM) with standardized KOH (2 mL). Data within the pH ranges of 2.5-3.2 and 10.8-11.2 were analyzed using software to obtain the standard electrode potential (E0) and slope factor. Owing to the sharp rise in pH at the titration endpoint (pH 3.2-10.8), data obtained in this region are subject to significant error and were therefore excluded from the calibration analysis. A pKw value of 13.78 was taken from the literature (Baes, C. F.; Mesmer, R. E. The Hydrolysis of Cations; Wiley: New York, 1976).
# (§2) ICP standards of calcium, strontium, and barium in dilute HNO3 were employed in the titrations. The exact amount of HNO3 was determined by potentiometric titration of each metal solution (1 mL), diluted to a known volume with H2O, with standardized KOH to pH ˜7; under these conditions, no precipitation of metal hydroxide species was observed. The data were analyzed using a Gran plot (Gran, G. Analyst 1952, 77, 661-671). Stability constants were measured for the alkaline earth complexes of macropa^2− and macropaquin^2− by adding standardized KOH to a solution (20 mL) containing ligand (0.02 mmol), metal (0.02 mmol), 1 M KCl (1.9 mmol), and a portion of 0.1 M HCl sufficient to bring the total acid content (HCl+HNO3) to 0.1 mmol. The titration method employed either a 0.1 mV/min or 0.2 mV/min drift limit with a maximum wait time of 300 seconds between addition of base and measurement. […] Data points (˜30-90) obtained over the pH ranges of 2.5-10.5 (Ba-macropa), 2.8-10.5 (Sr-macropa), 4.0-10.5 (Ca-macropa), 2.7-11.3 (Ba-macropaquin), and 4.0-11.3 (Sr- and Ca-macropaquin) were included in the refinements. These pH ranges reflect the portion of the titration curves in which metal binding is occurring. Using the protonation constants measured for each ligand, the stability constants (Equations 2-4, below) were calculated from the average of at least 3 independent titrations using appropriate software. Proton concentration was admitted as a refineable parameter. Ligand (L) concentration was taken as the averaged value obtained from the refinements of ligand-only titrations. The errors given for the stability constants correspond to one standard deviation.
# (§3) The alkaline earth stability constants for macroquin-SO3^4− were determined using a system in which each ligand titration was paired with a ligand-metal titration. These pairwise titrations permitted the ligand concentration for the metal-ligand titrations to be known with reasonable certainty from the refinement of the ligand-only titrations. Immediately following a titration of the free ligand with HCl, metal ion (0.013 mmol) was added and the solution was equilibrated under Ar for 15 minutes before the addition of standardized KOH. The same titration method was employed as described above for macropa^2− and macropaquin^2−. […]
# [2] = cited from earlier work
# [3] = cited from earlier work; remark: listed apart in the source
# [4] = Thermodynamic stability constants of Sr^2+ complexes by pH-potentiometry; format: binding; conditions: I = 0.1M KCl; for pSr (−log [M^2+]free): [M^2+] = 10^−6M, [L] = 10^−5M, pH 7.4; for log K′Sr (conditional stability constant): pH 7.4, 25° C., calculated from protonation and stability constants
# Protocol: as §1, §2, §3
# [5] = literature values, cited from earlier work; for log Ka1 / log Ka2 / log Ka3 / log Ka4: I = 0.1M KCl (footnotes b, c, d)
# [6] = Protonation constants of the ligands by pH-potentiometric titration; format: physicochemical; conditions: for occurrence of the fully deprotonated ligand in solution: ligand speciation versus pH; for log Ka1 / log Ka2 / log Ka3 / log Ka4: pH-potentiometry, 25° C., I = 0.1M KCl
# Protocol: as §1
# Stock solutions of macropa and macropaquin were prepared in H2O. […] The exact ligand concentrations were determined from the potentiometric titration curves with KOH. Protonation equilibria of macropa^2− and macropaquin^2− were determined by adding standardized KOH to a solution (20 mL) containing ligand (˜0.02 mmol), 0.1 M HCl (0.1 mmol), and 1 M KCl (1.9 mmol). The titration method employed a 0.1 mV/min drift limit with a maximum wait time of 90 sec between addition of base and measurement. At least 70 data points were collected over the pH range of 2.5-10.5 (macropa) or 2.5-11.3 (macropaquin). The protonation constants, defined in Eq. 1, were calculated from the average of at least 4 independent titrations using the appropriate software.
# Both ligand (L) and proton concentrations were admitted as refineable parameters. The errors given for the protonation constants correspond to one standard deviation. The protonation constants measured for macropa^2− were consistent with those previously reported (Roca-Sabio et al., 2009, supra); log Ka5 was not able to be determined under the conditions employed here. Protonation equilibria of macroquin-SO3^4− were determined by titrating standardized HCl (˜5.19 mL) into a solution (62.5 mL) containing ligand (˜0.013 mmol, 10.4 mg), KOH (0.25 mmol), and 1 M KCl (6 mmol). The same titration method was employed as described above for the other two ligands. At least 90 data points over the pH range of 4.0-10.8 were included in the refinement; no additional protonation constants could be refined when data from pH 2.5-3.99 were included. The protonation constants were calculated from the average of 15 independent titrations.
# [7] = literature values (footnotes b, c)
# [8] = bracketed literature value, I = 0.1M KNO3 (footnote e)
SMILES,pCa (−log [M^2+]free) [1],log K′Ca (conditional stability constant) [1],pSr (−log [M^2+]free) ([4]; 25° C.),log K′Sr (conditional stability constant) [4],log Ka1 [5],log Ka2 [5],log Ka3 [5],log Ka4 [5],log KCaHL [1],log KCaL [1],"log KSrHL ([4]; pH-potentiometry, 25° C.)","log KSrL ([4]; pH-potentiometry, 25° C.)","overall basicity of the ligand, sum of log Ka values [6]",occurrence of the fully deprotonated ligand in solution [6],log Ka1 [6],log Ka2 [6],log Ka3 [6],log Ka4 [6],other results
"O=C(O)CN1CCN(CC(=O)O)CCN(CC(=O)O)CCN(CC(=O)O)CC1 [DOTA, reference compound]",11.29,10.34,9.30,8.35,11.14,9.69,4.85,3.95,–,–,–,–,–,–,–,–,–,–,"log KSrHL [2, 7]: 4.52; log KCaHL [3, 7]: 3.60"
"O=S(=O)(O)c1ccc(O)c2nc(CN3CCOCCOCCN(Cc4ccc5c(S(=O)(=O)O)ccc(O)c5n4)CCOCCOCC3)ccc12 [macroquin-SO3, 2,2′-((1,4,10,13-tetraoxa-7,16-diazacyclooctadecane-7,16-diyl)bis(methylene))bis(8-hydroxyquinoline-5-sulfonic acid)]",6.01,3.19,6.70,5.64,–,–,–,–,8.60(4),6.04(8),8.34(4),8.62(2),32.14,do not exist in solution below pH 8,9.34,9.43,6.75,6.62,"log KSrH2L ([4]; pH-potentiometry, 25° C.): 6.920(3); fraction of ligand present as H2L^2− ([6]; pH 7.4): 78%; log Ka1 ([6]; listed as macroquin-SO3^4−): 9.34(4); log Ka2 ([6]; listed as macroquin-SO3^4−): 9.43(1); log Ka3 ([6]; listed as macroquin-SO3^4−): 6.75(4); log Ka4 ([6]; listed as macroquin-SO3^4−): 6.62(4)"
"O=C(O)c1cccc(CN2CCOCCOCCN(Cc3ccc4cccc(O)c4n3)CCOCCOCC2)n1 [macropaquin, 6-((16-((8-hydroxyquinolin-2-yl)methyl)-1,4,10,13-tetraoxa-7,16-diazacyclooctadecan-7-yl)methyl)picolinic acid]",6.04,3.94,8.50,7.54,–,–,–,–,8.59(2),5.90(4),8.92(2),9.19(5),27.69,do not exist in solution below pH 8,10.33,7.15,6.97,3.24(4),fraction of ligand as monoprotonated species HL^− ([6]; pH 7.4): 56%; log Ka1 ([6]; listed as macropaquin^2−): 10.33(4); log Ka2 ([6]; listed as macropaquin^2−): 7.15(3); log Ka3 ([6]; listed as macropaquin^2−): 6.97(2)
"O=C(O)c1cccc(CN2CCOCCOCCN(Cc3cccc(C(=O)O)n3)CCOCCOCC2)n1 [macropa, 6,6-((1,4,10,13-tetraoxa-7,16-diazacyclooctadecane-7,16-diyl)bis(methylene))dipicolinic acid]",6.54,5.42,10.02,9.07,(7.41)^d,(6.85),(3.32),(2.36),–,5.79(1),3.35(8),9.442(4),19.99,–,7.41,6.899,3.23(1),2.45(5),"log KSrHL [2, 8]: [4.16]; log KSrL [2, 8]: [9.57]; log KCaL [3, 8]: [5.25]^e; fraction of ligand fully deprotonated (L^2−) ([6]; pH 7.4): 43%; log Ka1 ([6]; listed as macropa^2−): 7.41(1); log Ka2 ([6]; listed as macropa^2−): 6.899(3); log Ka5 ([5]; I = 0.1M KCl (footnotes c, d)): (1.69)"
